Key:
Test in all cases: KINOMEscan
Type in all cases: binding
Details in all cases: read-out: % Ctrl
[1] = molecular target: T1, ABL1-nonphosphorylated (Homo sapiens, UniProt P00519)
T1 construct: purchased DiscoveRx KINOMEscan
Outline: (§1)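 Competition binding panel of 442 non-mutant kinases: test compound at 5 and 10 μM competed with an active-site-directed ligand for 1 h with shaking. Bound kinase was eluted with 0.5 μM ligand and quantified by qPCR; %Ctrl = (compound − positive control)/(DMSO − positive control) × 100, lower meaning tighter binding.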

[2] = molecular target: T2, CAMK2A (Homo sapiens, UniProt Q9UQM7)
T2 construct: purchased DiscoveRx KINOMEscan
T2 sequence (Q9UQM7 whole entry): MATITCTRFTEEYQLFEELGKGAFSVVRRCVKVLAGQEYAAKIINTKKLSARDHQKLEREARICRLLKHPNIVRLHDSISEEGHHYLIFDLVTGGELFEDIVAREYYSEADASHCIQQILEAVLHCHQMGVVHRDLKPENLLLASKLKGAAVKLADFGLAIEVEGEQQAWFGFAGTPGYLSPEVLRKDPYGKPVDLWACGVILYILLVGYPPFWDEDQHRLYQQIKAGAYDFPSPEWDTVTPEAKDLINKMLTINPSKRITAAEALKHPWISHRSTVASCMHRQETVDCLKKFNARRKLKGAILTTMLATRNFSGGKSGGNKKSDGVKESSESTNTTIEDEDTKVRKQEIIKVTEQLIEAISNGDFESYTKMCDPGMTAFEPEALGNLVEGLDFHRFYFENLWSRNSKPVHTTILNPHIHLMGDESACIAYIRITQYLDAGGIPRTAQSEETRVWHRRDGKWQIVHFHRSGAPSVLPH
Outline: as §1

[3] = molecular target: T3, CDK4-cyclinD3 (Homo sapiens, UniProt P11802)
T3 construct: purchased DiscoveRx KINOMEscan
Outline: as §1

[4] = molecular target: T4, CDK7 (Homo sapiens, UniProt P50613)
T4 construct: purchased DiscoveRx KINOMEscan
T4 sequence (P50613 whole entry): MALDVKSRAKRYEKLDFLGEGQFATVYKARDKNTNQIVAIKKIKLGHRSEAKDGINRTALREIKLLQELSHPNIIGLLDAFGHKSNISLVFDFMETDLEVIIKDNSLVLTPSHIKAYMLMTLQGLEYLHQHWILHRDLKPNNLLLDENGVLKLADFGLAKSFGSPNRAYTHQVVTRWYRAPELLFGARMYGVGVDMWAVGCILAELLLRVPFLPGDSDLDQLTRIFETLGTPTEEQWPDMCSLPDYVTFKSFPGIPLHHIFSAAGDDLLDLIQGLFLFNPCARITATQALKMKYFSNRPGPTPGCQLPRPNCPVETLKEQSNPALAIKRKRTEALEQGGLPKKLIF
Outline: as §1

[5] = molecular target: T5, CLK3 (Homo sapiens, UniProt P49761)
T5 construct: purchased DiscoveRx KINOMEscan
T5 sequence (P49761 whole entry): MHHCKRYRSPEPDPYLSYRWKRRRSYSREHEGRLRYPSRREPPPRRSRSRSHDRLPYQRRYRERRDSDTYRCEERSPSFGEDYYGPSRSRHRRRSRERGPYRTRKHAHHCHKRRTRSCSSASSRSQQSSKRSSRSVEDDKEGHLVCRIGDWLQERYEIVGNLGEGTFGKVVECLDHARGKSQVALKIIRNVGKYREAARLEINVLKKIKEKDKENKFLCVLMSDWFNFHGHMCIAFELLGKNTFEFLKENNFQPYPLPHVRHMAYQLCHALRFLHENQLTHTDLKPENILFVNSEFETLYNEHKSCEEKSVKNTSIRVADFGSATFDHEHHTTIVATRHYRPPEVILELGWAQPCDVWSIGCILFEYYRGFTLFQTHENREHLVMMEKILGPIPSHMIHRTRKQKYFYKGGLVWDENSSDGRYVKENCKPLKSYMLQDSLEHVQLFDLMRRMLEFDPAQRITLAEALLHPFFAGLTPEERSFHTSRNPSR
Outline: as §1

[6] = molecular target: T6, CSNK2A1 (Homo sapiens, UniProt P68400)
T6 construct: purchased DiscoveRx KINOMEscan
Outline: as §1

[7] = molecular target: T7, CTK (Homo sapiens, UniProt P42679)
T7 construct: purchased DiscoveRx KINOMEscan
T7 sequence (P42679 whole entry): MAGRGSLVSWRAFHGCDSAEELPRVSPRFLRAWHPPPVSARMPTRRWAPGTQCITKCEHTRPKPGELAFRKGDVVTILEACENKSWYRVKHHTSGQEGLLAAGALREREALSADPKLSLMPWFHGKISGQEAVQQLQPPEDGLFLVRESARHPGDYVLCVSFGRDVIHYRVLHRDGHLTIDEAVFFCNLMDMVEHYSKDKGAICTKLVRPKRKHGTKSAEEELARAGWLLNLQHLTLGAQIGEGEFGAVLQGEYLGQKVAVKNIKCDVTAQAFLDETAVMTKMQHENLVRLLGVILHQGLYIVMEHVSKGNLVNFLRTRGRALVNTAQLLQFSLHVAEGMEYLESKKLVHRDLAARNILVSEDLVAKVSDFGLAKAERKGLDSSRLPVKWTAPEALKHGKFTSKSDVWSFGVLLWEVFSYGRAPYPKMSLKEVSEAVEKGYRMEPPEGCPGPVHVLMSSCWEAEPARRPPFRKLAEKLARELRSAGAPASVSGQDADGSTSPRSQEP
Outline: as §1

[8] = molecular target: T8, DDR1 (Homo sapiens, UniProt Q08345)
T8 construct: purchased DiscoveRx KINOMEscan
Outline: as §1

[9] = molecular target: T9, FER (Homo sapiens, UniProt P16591)
T9 construct: purchased DiscoveRx KINOMEscan
Outline: as §1

[10] = molecular target: T10, FES (Homo sapiens, UniProt P07332)
T10 construct: purchased DiscoveRx KINOMEscan
Outline: as §1

[11] = molecular target: T11, GCN2(Kin.Dom.2,S808G) (Homo sapiens, UniProt Q9P2K8, S808G)
T11 construct: GCN2(Kin.Dom.2,S808G); purchased DiscoveRx KINOMEscan
T11 sequence (Q9P2K8 590-1001 S808G limits assumed): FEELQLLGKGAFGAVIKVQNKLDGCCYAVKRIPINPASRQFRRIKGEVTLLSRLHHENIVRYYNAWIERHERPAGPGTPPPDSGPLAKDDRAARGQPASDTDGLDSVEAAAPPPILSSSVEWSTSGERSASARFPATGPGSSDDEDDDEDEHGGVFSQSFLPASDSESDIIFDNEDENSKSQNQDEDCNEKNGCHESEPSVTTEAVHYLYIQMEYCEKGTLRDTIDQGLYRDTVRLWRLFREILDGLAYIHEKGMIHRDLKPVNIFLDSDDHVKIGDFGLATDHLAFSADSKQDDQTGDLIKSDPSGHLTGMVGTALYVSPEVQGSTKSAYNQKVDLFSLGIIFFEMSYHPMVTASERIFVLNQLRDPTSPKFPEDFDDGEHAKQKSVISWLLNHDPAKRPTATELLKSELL

[12] = molecular target: T12, HIPK2 (Homo sapiens, UniProt Q9H2X6)
T12 construct: purchased DiscoveRx KINOMEscan
Outline: as §1

[13] = molecular target: T13, KIT(D816H) (Homo sapiens, UniProt P10721, D816H)
T13 construct: purchased DiscoveRx KINOMEscan

[14] = molecular target: T14, MAP3K4 (Homo sapiens, UniProt Q9Y6R4)
T14 construct: purchased DiscoveRx KINOMEscan
Outline: as §1

[15] = molecular target: T15, MEK4 (Homo sapiens, UniProt P45985)
T15 construct: purchased DiscoveRx KINOMEscan
Outline: as §1

[16] = molecular target: T16, NEK2 (Homo sapiens, UniProt P51955)
T16 construct: purchased DiscoveRx KINOMEscan
Outline: as §1

[17] = molecular target: T17, NEK7 (Homo sapiens, UniProt Q8TDX7)
T17 construct: purchased DiscoveRx KINOMEscan
T17 sequence (Q8TDX7 whole entry): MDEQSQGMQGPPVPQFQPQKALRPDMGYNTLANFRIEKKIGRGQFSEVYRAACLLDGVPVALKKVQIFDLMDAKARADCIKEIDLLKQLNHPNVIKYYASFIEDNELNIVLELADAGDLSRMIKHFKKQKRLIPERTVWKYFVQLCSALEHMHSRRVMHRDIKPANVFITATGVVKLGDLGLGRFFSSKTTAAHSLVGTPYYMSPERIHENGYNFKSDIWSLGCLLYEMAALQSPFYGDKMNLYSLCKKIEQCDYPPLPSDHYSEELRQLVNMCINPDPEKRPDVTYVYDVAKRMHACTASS
Outline: as §1

[18] = molecular target: T18, PAK7 (Homo sapiens, UniProt Q9P286)
T18 construct: purchased DiscoveRx KINOMEscan
Outline: as §1

[19] = molecular target: T19, PIK3CA (Homo sapiens, UniProt P42336)
T19 construct: purchased DiscoveRx KINOMEscan
T19 sequence (P42336 whole entry): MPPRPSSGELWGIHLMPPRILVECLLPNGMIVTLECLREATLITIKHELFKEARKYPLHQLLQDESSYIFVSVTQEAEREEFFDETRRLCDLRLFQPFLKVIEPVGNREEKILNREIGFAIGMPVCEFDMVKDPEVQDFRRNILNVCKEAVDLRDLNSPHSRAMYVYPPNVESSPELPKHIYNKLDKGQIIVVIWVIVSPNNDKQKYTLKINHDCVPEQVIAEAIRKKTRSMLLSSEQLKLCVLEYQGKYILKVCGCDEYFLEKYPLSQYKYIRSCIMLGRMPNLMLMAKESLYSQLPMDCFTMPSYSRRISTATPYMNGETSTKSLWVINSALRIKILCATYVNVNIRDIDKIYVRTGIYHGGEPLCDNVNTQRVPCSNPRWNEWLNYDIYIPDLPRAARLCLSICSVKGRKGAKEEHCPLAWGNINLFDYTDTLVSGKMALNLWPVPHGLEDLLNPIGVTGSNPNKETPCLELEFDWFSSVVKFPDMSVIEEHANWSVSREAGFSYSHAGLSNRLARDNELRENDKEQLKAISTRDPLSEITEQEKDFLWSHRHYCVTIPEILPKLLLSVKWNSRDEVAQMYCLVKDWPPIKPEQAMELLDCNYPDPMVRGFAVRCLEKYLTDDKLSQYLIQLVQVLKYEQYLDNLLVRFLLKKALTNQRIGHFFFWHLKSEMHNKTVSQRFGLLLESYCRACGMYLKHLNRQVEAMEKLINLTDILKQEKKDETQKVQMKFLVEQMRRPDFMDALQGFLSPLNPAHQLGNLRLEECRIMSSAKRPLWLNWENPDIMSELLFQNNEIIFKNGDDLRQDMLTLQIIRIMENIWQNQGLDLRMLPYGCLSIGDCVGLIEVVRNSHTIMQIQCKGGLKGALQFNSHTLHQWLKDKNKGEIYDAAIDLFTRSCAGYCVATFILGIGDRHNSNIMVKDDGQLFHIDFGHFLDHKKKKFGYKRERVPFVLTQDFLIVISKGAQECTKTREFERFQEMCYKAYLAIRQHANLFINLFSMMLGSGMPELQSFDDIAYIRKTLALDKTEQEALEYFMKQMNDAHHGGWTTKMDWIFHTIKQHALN
Outline: as §1

[20] = molecular target: T20, PIK3CA(C420R) (Homo sapiens, UniProt P42336, C420R)
T20 construct: purchased DiscoveRx KINOMEscan
T20 sequence (P42336 whole entry C420R): as the sequence (P42336 whole entry) above, with C420R counted along it

[21] = molecular target: T21, PIP5K2B (Homo sapiens, UniProt P78356)
T21 construct: purchased DiscoveRx KINOMEscan
Outline: as §1

[22] = molecular target: T22, PKAC-beta (Homo sapiens, UniProt P22694)
T22 construct: purchased DiscoveRx KINOMEscan
Outline: as §1

[23] = molecular target: T23, PKN1 (Homo sapiens, UniProt Q16512)
T23 construct: purchased DiscoveRx KINOMEscan
Outline: as §1

[24] = molecular target: T24, PYK2 (Homo sapiens, UniProt Q14289)
T24 construct: purchased DiscoveRx KINOMEscan
Outline: as §1

[25] = molecular target: T25, ROS1 (Homo sapiens, UniProt P08922)
T25 construct: purchased DiscoveRx KINOMEscan
Outline: as §1

[26] = molecular target: T26, SIK (Homo sapiens, UniProt P57059)
T26 construct: purchased DiscoveRx KINOMEscan
Outline: as §1

[27] = molecular target: T27, STK35 (Homo sapiens, UniProt Q8TDR2)
T27 construct: purchased DiscoveRx KINOMEscan
T27 sequence (Q8TDR2 whole entry): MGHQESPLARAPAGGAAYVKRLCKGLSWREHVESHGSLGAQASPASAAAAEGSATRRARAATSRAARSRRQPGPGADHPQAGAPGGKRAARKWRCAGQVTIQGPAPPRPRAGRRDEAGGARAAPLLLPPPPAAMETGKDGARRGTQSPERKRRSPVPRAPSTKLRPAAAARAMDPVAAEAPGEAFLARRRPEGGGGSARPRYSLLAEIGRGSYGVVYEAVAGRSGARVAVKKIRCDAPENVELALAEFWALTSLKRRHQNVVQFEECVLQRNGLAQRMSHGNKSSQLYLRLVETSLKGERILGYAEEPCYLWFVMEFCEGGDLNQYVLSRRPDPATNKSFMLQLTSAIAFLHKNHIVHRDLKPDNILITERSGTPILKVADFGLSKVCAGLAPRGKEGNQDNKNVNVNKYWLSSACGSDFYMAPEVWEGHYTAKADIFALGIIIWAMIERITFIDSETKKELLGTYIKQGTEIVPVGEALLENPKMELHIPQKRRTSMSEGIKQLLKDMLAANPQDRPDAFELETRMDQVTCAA
Outline: as §1

[28] = molecular target: T28, TRKB (Homo sapiens, UniProt Q16620)
T28 construct: purchased DiscoveRx KINOMEscan
T28 sequence (Q16620 32-822): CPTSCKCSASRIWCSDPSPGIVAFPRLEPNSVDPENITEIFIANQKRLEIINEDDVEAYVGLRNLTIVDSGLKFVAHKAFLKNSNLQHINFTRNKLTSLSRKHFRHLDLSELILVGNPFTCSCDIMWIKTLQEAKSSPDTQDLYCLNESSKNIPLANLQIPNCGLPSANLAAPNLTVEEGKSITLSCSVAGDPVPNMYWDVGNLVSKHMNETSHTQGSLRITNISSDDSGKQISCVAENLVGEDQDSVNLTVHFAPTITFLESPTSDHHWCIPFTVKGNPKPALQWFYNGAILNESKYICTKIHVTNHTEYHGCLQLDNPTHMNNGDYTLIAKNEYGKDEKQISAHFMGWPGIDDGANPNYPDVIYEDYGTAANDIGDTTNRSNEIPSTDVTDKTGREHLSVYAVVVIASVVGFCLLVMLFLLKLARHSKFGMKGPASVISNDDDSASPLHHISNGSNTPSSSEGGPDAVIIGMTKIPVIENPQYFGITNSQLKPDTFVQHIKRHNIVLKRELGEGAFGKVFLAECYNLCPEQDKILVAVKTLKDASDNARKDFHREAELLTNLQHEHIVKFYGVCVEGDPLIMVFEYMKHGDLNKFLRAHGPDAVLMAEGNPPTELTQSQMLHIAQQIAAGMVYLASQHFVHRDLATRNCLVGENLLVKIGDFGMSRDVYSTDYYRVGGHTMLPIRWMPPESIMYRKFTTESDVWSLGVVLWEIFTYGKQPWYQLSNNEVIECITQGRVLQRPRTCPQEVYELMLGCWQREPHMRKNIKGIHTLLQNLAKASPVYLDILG
Outline: as §1

[29] = molecular target: T29, TXK (Homo sapiens, UniProt P42681)
T29 construct: purchased DiscoveRx KINOMEscan
Outline: as §1

[30] = molecular target: T30, p38-beta (Homo sapiens, UniProt Q15759)
T30 construct: purchased DiscoveRx KINOMEscan
Outline: as §1

`Cc1ccc(C2=Nc3cccnc3S(=O)(=O)c3ccccc32)cc1` [TBPT, 6-(p-tolyl)benzo[f] pyrido[2,3-b][1,4] thiazepine 11,11-dioxide] was tested, and the remaining binding at 5 µM ([1]; 5 μM) was 89%, the remaining binding at 10 µM ([1]; 10 μM) was 100% and the remaining binding at 5 µM ([2]; 5 μM) was 100%. The remaining binding at 10 µM ([2]; 10 μM) was 87%, the remaining binding at 5 µM ([3]; 5 μM) was 100% and the remaining binding at 10 µM ([3]; 10 μM) was 90%. The remaining binding at 5 µM ([4]; 5 μM) was 83%, the remaining binding at 10 µM ([4]; 10 μM) was 100% and the remaining binding at 5 µM ([5]; 5 μM) was 100%. The remaining binding at 10 µM ([5]; 10 μM) was 100%, the remaining binding at 5 µM ([6]; 5 μM) was 100% and the remaining binding at 10 µM ([6]; 10 μM) was 84%. It also gave a remaining binding at 5 µM ([7]; 5 μM) of 94%, a remaining binding at 10 µM ([7]; 10 μM) of 100% and a remaining binding at 5 µM ([8]; 5 μM) of 100%. The remaining binding at 10 µM ([8]; 10 μM) was 92%, the remaining binding at 5 µM ([9]; 5 μM) was 93% and the remaining binding at 10 µM ([9]; 10 μM) was 100%. The remaining binding at 5 µM ([10]; 5 μM) was 100%, the remaining binding at 10 µM ([10]; 10 μM) was 98% and the remaining binding at 5 µM ([11]; 5 μM) was 100%. For the same compound, the remaining binding at 10 µM ([11]; 10 μM) was 100%, the remaining binding at 5 µM ([12]; 5 μM) was 100% and the remaining binding at 10 µM ([12]; 10 μM) was 100%. The remaining binding at 5 µM ([13]; 5 μM) was 71%, the remaining binding at 10 µM ([13]; 10 μM) was 100% and the remaining binding at 5 µM ([14]; 5 μM) was 99%. It also gave a remaining binding at 10 µM ([14]; 10 μM) of 96%, a remaining binding at 5 µM ([15]; 5 μM) of 82% and a remaining binding at 10 µM ([15]; 10 μM) of 100%. The remaining binding at 5 µM ([16]; 5 μM) was 92%, the remaining binding at 10 µM ([16]; 10 μM) was 81% and the remaining binding at 5 µM ([17]; 5 μM) was 100%. It also gave a remaining binding at 10 µM ([17]; 10 μM) of 89%, a remaining binding at 5 µM ([18]; 5 μM) of 78% and a remaining binding at 10 µM ([18]; 10 μM) of 95%. It also gave a remaining binding at 5 µM ([19]; 5 μM) of 100%, a remaining binding at 10 µM ([19]; 10 μM) of 82% and a remaining binding at 5 µM ([20]; 5 μM) of 100%. For the same compound, the remaining binding at 10 µM ([20]; 10 μM) was 100%, the remaining binding at 5 µM ([21]; 5 μM) was 100% and the remaining binding at 10 µM ([21]; 10 μM) was 100%. For the same compound, the remaining binding at 5 µM ([22]; 5 μM) was 96%, the remaining binding at 10 µM ([22]; 10 μM) was 100% and the remaining binding at 5 µM ([23]; 5 μM) was 90%. The remaining binding at 10 µM ([23]; 10 μM) was 100%, the remaining binding at 5 µM ([24]; 5 μM) was 100% and the remaining binding at 10 µM ([24]; 10 μM) was 100%. It also gave a remaining binding at 5 µM ([25]; 5 μM) of 100%, a remaining binding at 10 µM ([25]; 10 μM) of 100% and a remaining binding at 5 µM ([26]; 5 μM) of 92%. For the same compound, the remaining binding at 10 µM ([26]; 10 μM) was 92%, the remaining binding at 5 µM ([27]; 5 μM) was 97% and the remaining binding at 10 µM ([27]; 10 μM) was 100%. It also gave a remaining binding at 5 µM ([28]; 5 μM) of 96%, a remaining binding at 10 µM ([28]; 10 μM) of 100% and a remaining binding at 5 µM ([29]; 5 μM) of 100%. The remaining binding at 10 µM ([29]; 10 μM) was 75%, the remaining binding at 5 µM ([30]; 5 μM) was 100% and the remaining binding at 10 µM ([30]; 10 μM) was 76%.
